Measurements from patent US11236047B2 (ASTEX THERAPEUTICS LIMITED, priority 2017, dated 2022).
Where two headings read alike, the source gives them in different places. Blank lines part the entries; values can stand above or below the compound they belong to.

Legend:
MDM2-p53 interaction = MDM2-p53 interaction (Homo sapiens (Human), UniProt Q00987); settings: for inhibition at 0.03 µM: read-out: MDM2 % inhibition @0.030
SJSA-1 cells = assay: Protocol B: SJSA-1 CellTiter-Glo luminescent cell viability assay
[1] = read-out: SJSA1 IC50 (μM) (Protocol B), SJSA-1, Protocol B
[2] = read-out: SJSA1 IC50, Protocol B, SJSA-1

Sequence of MDM2-p53 interaction (Q00987 whole entry): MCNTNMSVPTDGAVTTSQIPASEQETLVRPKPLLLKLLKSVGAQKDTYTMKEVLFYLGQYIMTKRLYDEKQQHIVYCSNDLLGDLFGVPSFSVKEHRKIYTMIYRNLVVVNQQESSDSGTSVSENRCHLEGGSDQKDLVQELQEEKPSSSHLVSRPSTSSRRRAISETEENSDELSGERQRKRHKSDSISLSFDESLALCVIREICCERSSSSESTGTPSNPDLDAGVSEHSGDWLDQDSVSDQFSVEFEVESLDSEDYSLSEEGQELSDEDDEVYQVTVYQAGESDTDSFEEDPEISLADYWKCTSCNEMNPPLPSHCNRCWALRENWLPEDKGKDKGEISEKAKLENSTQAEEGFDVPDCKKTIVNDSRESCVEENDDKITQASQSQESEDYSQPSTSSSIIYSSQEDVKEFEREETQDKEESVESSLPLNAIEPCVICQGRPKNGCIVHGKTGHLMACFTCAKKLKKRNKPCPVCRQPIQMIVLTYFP

SMILES: CCC(O)(c1cc(F)c2c(c1)C(=O)N(Cc1ccc(C#N)cn1)[C@@]2(O[C@H]1CCOC1)c1ccc(Cl)cc1)c1cnn(C)c1 (single isomer, unassigned) [Example 359]
MDM2 % at stated concentration (MDM2-p53 interaction; at 0.10 μM): 50%@0.10
IC50 (SJSA-1 cells; [1]): 3.9 µM

SMILES: COc1ccc(CN2C(=O)c3cc(C(C)(O)c4cnn(C)c4)cc(F)c3[C@]2(OCC2(O)CC2)c2ccc(Cl)cc2)nc1 (stereo partly drawn) [Example 228, (3R)-3-(4-chlorophenyl)-4-fluoro-6-[1-hydroxy-1-(1-methyl-1H-pyrazol-4-yl)ethyl]-3-[(1-hydroxycyclopropyl)methoxy]-2-[(5-methoxypyridin-2-yl)methyl]-2,3-dihydro-1H-isoindol-1-one]
MDM2 % at stated concentration (MDM2-p53 interaction; at 0.010 μM): 61%@0.010
IC50 (SJSA-1 cells; [1]): 0.21 µM

SMILES: COc1ccc(CN2C(=O)c3cc(C(C)(O)c4cnn(C)c4)cc(F)c3[C@]2(OCC2(O)CC2)c2ccc(Cl)cc2)nc1 (stereo partly drawn) [Example 347, (3R)-3-(4-chlorophenyl)-4-fluoro-6-[1-hydroxy-1-(1-methyl-1H-pyrazol-4-yl)ethyl]-3-[(1-hydroxycyclopropyl)methoxy]-2-[(5-methoxypyridin-2-yl)methyl]-2,3-dihydro-1H-isoindol-1-one]
MDM2 % at stated concentration (MDM2-p53 interaction; at 0.10 μM): 63%@0.10
IC50 (SJSA-1 cells; [1]): 1.7 µM

SMILES: CCC(O)(c1cc(F)c2c(c1)C(=O)N(Cc1ccc(C#N)cn1)[C@@]2(OC1CC(O)C1)c1ccc(Cl)cc1)[C@H]1CC[C@H](O)CC1 (stereo partly drawn) [Example 520, 6-{[(1R)-1-(4-chlorophenyl)-7-fluoro-5-{1-hydroxy-1-[trans-4-hydroxycyclohexyl]propyl}-3-oxo-1-[cis-3-hydroxycyclobutoxy]-2,3-dihydro-1H-isoindol-2-yl]methyl}pyridine-3-carbonitrile]
inhibition at 0.03 µM (MDM2-p53 interaction): 32%
IC50 (SJSA-1 cells; [2]): 3.9 µM

SMILES: CCC(O)(c1cc(F)c2c(c1)C(=O)N(Cc1ncc(Cl)cn1)[C@@]2(OCC1(CO)CC1)c1ccc(Cl)cc1)c1cn(C)cn1 (single isomer, unassigned) [Example 477]
inhibition at 0.001 µM (MDM2-p53 interaction; read-out: MDM2 % inhibition @0.0010): 86%
IC50 (SJSA-1 cells; [2]): 0.0091 µM

SMILES: Cn1cc(C(O)(c2cc(F)c3c(c2)C(=O)N(Cc2ccc(C#N)cn2)[C@@]3(O[C@H]2CCOC2)c2ccc(Cl)cc2)C(F)(F)F)cn1 (stereo partly drawn) [Example 371, 6-{[(1R)-1-(4-chlorophenyl)-7-fluoro-3-oxo-1-[(3S)-oxolan-3-yloxy]-5-[2,2,2-trifluoro-1-hydroxy-1-(1-methyl-1H-pyrazol-4-yl)ethyl]-2,3-dihydro-1H-isoindol-2-yl]methyl}pyridine-3-carbonitrile]
inhibition at 0.03 µM (MDM2-p53 interaction): 43%

SMILES: CC(C)(O)c1cc(F)c2c(c1)C(=O)N([C@H](c1ccc(Cl)cn1)C(O)CO)[C@@]2(OCC1(O)CC1)c1ccc(Cl)cc1 (stereo partly drawn) [Example 331, (3R)-3-(4-Chlorophenyl)-2-[(1R)-1-(5-chloropyridin-2-yl)-2,3-dihydroxypropyl]-4-fluoro-3-[(1-hydroxycyclopropyl)methoxy]-6-(2-hydroxypropan-2-yl)-2,3-dihydro-1H-isoindol-1-one]
MDM2 % at stated concentration (MDM2-p53 interaction; at 0.030 μM): 49%@0.030

The remaining lines, values ahead:

MDM2 % at stated concentration (MDM2-p53 interaction; at 0.10 μM): 25%@0.10
IC50 (SJSA-1 cells; [1]): 4.3 µM
SMILES: Cn1cc(C(C)(O)c2cc(F)c3c(c2)C(=O)N(Cc2ncc(F)cc2F)[C@@]3(OCC2(O)CC2)c2ccc(Cl)cc2)cn1 (single isomer, unassigned) [Example 351]

MDM2 % at stated concentration (MDM2-p53 interaction; at 0.030 μM): 54%@0.030
IC50 (SJSA-1 cells; [1]): 0.51 µM
SMILES: Cn1cc(C(C)(O)c2cc(F)c3c(c2)C(=O)N(Cc2ncc(F)cc2F)[C@@]3(OCC2(O)CC2)c2ccc(Cl)cc2)cn1 (single isomer, unassigned) [Example 350]

MDM2 % at stated concentration (MDM2-p53 interaction): 62%@0.0010
SMILES: Cn1cc(C(C)(O)c2cc(F)c3c(c2)C(=O)N(Cc2ccc(Cl)c[n+]2[O-])[C@@]3(OCC2(CO)CC2)c2ccc(Cl)cc2)cn1 (single isomer, unassigned) [Example 407]

inhibition at 0.1 µM (MDM2-p53 interaction; read-out: MDM2 % inhibition @0.10): 57%
SMILES: CC[C@](O)(c1cc(F)c2c(c1)C(=O)N(Cc1ncc(Cl)cn1)[C@@]2(O[C@H]1CCOC1)c1ccc(Cl)cc1)C1CCN(C)CC1 [Example 567, (3R)-3-(4-chlorophenyl)-2-[(5-chloropyrimidin-2-yl)methyl]-4-fluoro-6-[(1R)-1-hydroxy-1-(1-methylpiperidin-4-yl)propyl]-3-[(3S)-oxolan-3-yloxy]-2,3-dihydro-1H-isoindol-1-one]
